Where a name gives a salt, the structure may show the parent alone.
Biological target: α7-subtype of nicotinic receptors (Rattus norvegicus, UniProt Q05941)
Experiment: biochemical
Format: binding

Chain of α7-subtype of nicotinic receptors (Q05941 23-502): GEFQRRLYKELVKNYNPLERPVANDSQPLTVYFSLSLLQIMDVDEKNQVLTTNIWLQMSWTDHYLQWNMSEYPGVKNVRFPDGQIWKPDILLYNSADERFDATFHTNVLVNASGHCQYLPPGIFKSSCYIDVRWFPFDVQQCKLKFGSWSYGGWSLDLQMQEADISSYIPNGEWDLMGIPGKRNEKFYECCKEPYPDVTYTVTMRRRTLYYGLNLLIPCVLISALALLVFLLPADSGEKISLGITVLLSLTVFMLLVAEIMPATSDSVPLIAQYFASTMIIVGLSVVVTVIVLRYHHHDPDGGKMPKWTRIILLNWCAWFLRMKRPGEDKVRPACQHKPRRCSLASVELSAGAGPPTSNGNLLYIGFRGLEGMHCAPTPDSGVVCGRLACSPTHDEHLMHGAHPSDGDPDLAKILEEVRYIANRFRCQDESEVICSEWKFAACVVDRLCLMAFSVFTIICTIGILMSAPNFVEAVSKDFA

## c1cc2c(cc1-c1nnc(N3CCN4CCC3CC4)o1)OCO2 [Compound A1, 4-(5-Benzo[1,3]-dioxol-5-yl-[1,3,4]oxadiazol-2-yl)-1,4-diaza-bicyclo[3.2.2]nonane Fumaric Acid Salt]
  IC50: < 10 nM
